Laboratory results: US8753838B2, “Method for producing alcohol using bioethanol waste fermented solution” (Korea Institute of Science and Technology, priority 2010, dated 2014)
Entries after “also recorded” stand apart in the source; their conditions may differ.

Tests used:
[1] = tested on: Clostridium pasteurianum (DSM 525); test: Effect of lactic acid, acetic acid and ethanol on growth and butanol production of Clostridium pasteurianum in glycerol medium (Example 1); type: cell-based; conditions: for inhibition of the growth of Clostridium pasteurianum (OD600): added to the medium up to 10 g/L, pH 6.5, 37° C.
Protocol: The butanol-producing bacterium Clostridium pasteurianum (DSM 525) was acquired from the DSMZ (Germany). The medium used for experiment was prepared with primarily distilled water (1 L) by adding the following ingredients: glycerol (30 g), K2HPO4 (0.5 g), KH2PO4 (0.5 g), MnSO4.H2O (0.01 g), MgSO4.7H2O (0.2 g), FeSO4.7H2O (0.01 g), NaCl (0.01 g), yeast extract (1 g), (NH4)2SO4 (2 g), MES (19.52 g), biotin (0.00001 g), thiamine (0.001 g) and p-aminobenzoic acid (0.001 g).
After adding lactic acid (C3H6O3, 0-14.6 g/L), acetic acid (C2H4O2, 0-10 g/L) or ethanol (C2H60, 0-20 g/L) to the medium, the pH was adjusted to 6.5 using potassium hydroxide (KOH) or sodium hydroxide (NaOH). After placing the medium (50 mL) in a 125-mL serum bottle and removing oxygen by blowing in argon gas, the bottle was sealed with a butyl rubber stopper and an aluminum cap. After sterilizing under high pressure and inoculating Clostridium pasteurianum cultured for 1-2 days at 5% (v/v), the bacterium was cultured at 37° C. while shaking at 130 rpm.
The cell growth was determined by measuring absorbance (optical density) at 600 nm (OD600).

[2] = tested on: Clostridium pasteurianum (C. pasteurianum DSM 525); test: Alkaline agent for pH control of medium: growth and butanol production of Clostridium pasteurianum (Example 4); type: cell-based; conditions: for cell growth (order of alkaline agents): medium of Example 1 with 10 g/L lactic acid, pH adjusted to 6.5 using each alkaline agent
Text: In the experiment for evaluating the effect of lactic acid, acetic acid and ethanol on the growth of Clostridium pasteurianum (C. pasteurianum DSM 525), sodium hydroxide (NaOH) was used to adjust the pH of the medium. Since the ethanol waste fermented solution has a pH of 4-5, the pH needs to be controlled using an alkaline agent in order to produce butanol using the Clostridium pasteurianum (C. pasteurianum DSM 525). In addition to sodium hydroxide, potassium hydroxide (KOH), calcium hydroxide (Ca(OH)2), ammonia water (NH4OH), etc. are available as the alkaline agent. It was investigated whether the growth of Clostridium pasteurianum (C. pasteurianum DSM 525) is affected by the alkaline agents. For this purpose, after adding lactic acid (10 g/L) to the medium of Example 1, pH was adjusted to 6.5 using each alkaline agent.

Compound	inhibition of the growth of Clostridium pasteurianum (OD600) [1]	cell growth (order of alkaline agents) [2]	further results
CC(O)C(=O)O (stereo not drawn) [Lactic acid, lactic acid]	did not result in severe inhibition		production of butanol ([1]; lactic acid added (10 g/L or less) compared to when not added): improved butanol-producing effect; also recorded: improved production of butanol
CC(=O)O [acetic acid]	did not result in severe inhibition		
N [ammonia water, ammonia water (NH4OH)]		faster in the order of calcium hydroxide, potassium hydroxide, ammonia water and sodium hydroxide	
[Ca+2].[OH-].[OH-] [calcium hydroxide, calcium hydroxide (Ca(OH)2)]		faster in the order of calcium hydroxide, potassium hydroxide, ammonia water and sodium hydroxide	
CCO [ethanol]	did not result in severe inhibition		
[K+].[OH-] [potassium hydroxide, potassium hydroxide (KOH)]		faster in the order of calcium hydroxide, potassium hydroxide, ammonia water and sodium hydroxide	
[Na+].[OH-] [sodium hydroxide, sodium hydroxide (NaOH)]		faster in the order of calcium hydroxide, potassium hydroxide, ammonia water and sodium hydroxide	
[Na] [sodium]			growth of the microorganism ([2]; as compared to potassium): inhibits the growth
